Here are results for 10 substances from patent US20230332145A1, “BIFUNCTIONAL MOLECULES AND METHODS OF USING THEREOF” (Flagship Pioneering, Inc., priority 2020, published 2023).

In the oligonucleotide strings, read from the 5' end, every base follows the letter of its sugar. An asterisk marks phosphorothioate; unmarked linkages are phosphodiester. Other units and linkages are bracketed, terminal groups are in braces. A string of capitals states the bases alone. e = 2'-O-(2-methoxyethyl) (MOE); [5mC] = 5-methylcytosine

Data set [1] relates to BET family of bromodomain proteins. To be noted: cited from earlier work.
In data set [2] the test system is MYC protein. Kind of data set: MYC protein, FRET based ELISA (Human c-Myc Cell-based kit) in HEK293T cells. To be noted: 200 nM, 24 hours. On the procedure:
PVT1 ASO1-JQ1 and control molecules were transfected to HEK293T cells at 400, 200, 100, and 50 nM with RNAiMax. PVT1 ASO1-JQ1:RNAiMax ratios in transfection are: 400 nM: 1.2 ul, 200 nM:0.6 ul, 100 nM:0.3 ul, 50 nM:0.15 ul. Cells were harvested 24 hours after transfection and MYC expression changes was monitored by qPCR and by enzyme-linked immunosorbent assay (ELISA). […] For a fluorescence resonance energy transfer (FRET) based ELISA assays, cell samples were prepared by Human c-Myc Cell-based kit (Cisbio # 63ADK053PEH) following manufractuer’s recommendation. MYC protein is detected in a sandwich assay using two specific antibodies, labeled with Europium Cryptate (donor) and with d2 (acceptor). FRET signal was read with Varioskan LUX Multimode Microplate Reader (ThermoFisher) with a 6 hr kinetic read.

The subject of data set [3] is MYC expression. Briefly: MYC expression by qPCR after RNAiMax transfection of HEK293T cells. The class given is cell-based, human. To be noted: for MYC expression change, linker comparison: 400 to 3.125 nM. As to the method:
HEK293T cells were seeded at 30k cells/well in a 96 well tissue culture vessel day before transfection. […] Transfected cells were allowed to recover and were harvested after 24 hours. MYC expression was measured by RNA level using qPCR analysis after transfection with each of the bi-functional molecule or control molecules. Cell samples for qPCR analysis were prepared by Cells to Ct 1 Step TaqMan Kit (ThermoFisher A25602) following manufractuer’s recommendations. qPCR assays were performed using Cells to Ct qPCR master mix, gene specific TaqMan probe (ThermoFisher), and Cells to Ct cell lysate. Relative levels of MYC were normalized to β-actin as a stably expressed control. MYC TaqMan probe: ThermoFisher Assay ID Hs00153408_ml; ACTB TaqMan probe: ThermoFisher Assay ID Hs01060665_g1. During qPCR amplification, FAM fluorescence intensity for each target gene was recorded by QuantStudio7 qPCR instrument (ThermoFisher Scientific) as a measurement of the amount of double-stranded DNA produced during each PCR cycle. Ct values for each gene in each sample were computed by the instrument software based on the amplification curves, and used to determine relative expression values for target and β-actin in each sample.
For orientation: Real-time PCR tracks product formation cycle by cycle.

For data set [4], the system named is SCN1A expression. Kind of data set: SCN1A expression by qPCR after transfection of SK-N-AS cells. To be noted: 100 to 3.125 nM, 48 hours. The class given is cell-based, human. On the procedure:
SCN1A-ASO1 shown in Table 5A was designed against the exonic region of SCN1A mRNA. SCN1A ASO1-Linker1-JQ1 was transfected to SK-N-AS cells at 100, 50, 25, 12.5, 6.25, and 3.125 nM with RNAiMax. SCN1A ASO1-JQ1:RNAiMax ratios in transfection were: 100 nM:0.3 ul, 50 nM and below:0.15 ul. Cells were harvested 48 hours after transfection and SCN1A expression changes were monitored by qPCR. TaqMan probe used in the assay for quantitation: SCN1A Hs00374696_ml (ThermoFisher), GAPDH Hs02786624_g1 (ThermoFisher).
SCN1A ASO1-Linker1-iBET762 was transfected to SK-N-AS cells at 100, 50, 25, 12.5, 6.25, and 3.125 nM with RNAiMax. SCN1A ASO1-iBET762:RNAiMax ratios in transfection are: 100 nM:0.3 ul, 50 nM and below:0.15 ul. Cells were harvested 48 hours after transfection and SCN1A expression changes were monitored by qPCR. TaqMan probe used in the assay for quantitation: SCN1A Hs00374696_m1 (ThermoFisher), GAPDH Hs02786624_g1 (ThermoFisher). […] SCN1A encodes for the alpha-1 subunit of the voltage-gated sodium channel (Na(V)1.1), and patients with SCN1A loss of function mutations suffers from Dravet syndrome, a neurological disorder.

In data set [5] the test system is SYNGAP1 expression. Briefly: SYNGAP1 expression by qPCR after transfection of HEK293T cells. The class given is cell-based, human. To be noted: 200 nM, 48 hours. As to the method: SYNGAP1 ASO1-JQ1 to SYNGAP1 ASO4-JQ1 were transfected to HEK293T cells at 200, and 67 nM with RNAiMax. SYNGAP1 ASO-JQ1:RNAiMax ratios in transfection are: 200 nM:0.6 ul, 67 nM:0.2 ul. Cells were harvested 48 hours after transfection and SYNGAP1 expression changes was monitored by qPCR. TaqMan probe used in the assay for quantitation: SYNGAP1: Assay ID Hs00405348_m1 (ThermoFisher), ACTB Assay ID Hs01060665_g1(ThermoFisher).

Setting [6] is: HEK293T, 400, 133, 44, 15 nM, 24 hours.

As to (-)JQ1, the “weaker biochemical activity as compared to JQ1” value in data set [1] is on record as more than 100 x.

Consider “PVT1 ASO1-JQ1: PVT1 ASO1 (SEQ ID NO: 7) conjugated to JQ1 with linker 2 (eG*eT*eA*eA*eG*eT*eG*eG*eA*eA*eT*eT*e[5mC]*e[5mC]*eA*eG*eT*eT*eG; JQ1 conjugated via linker 2, further chemistry not fully specified)”, for which the “MYC protein level increase” value in data set [2] is given as “about 2 fold”. Moreover, the “MYC response at top dose of titration” value in data set [3] (HEK293T, 200 nM, 24 hours) is on record as “slight decrease of MYC response”. Besides, the “MYC expression change upon dose titration” value in data set [3] (HEK293T, 200, 100, 50, 25, 12.5, 6.25, 3.125 nM, 24 hours) is “dose dependent response”. Besides, the “MYC expression change (RNA transcripts)” value in data set [3] (HEK293T, 400, 200, 100, 50 nM, 24 hours) was “increase of MYC RNA transcripts”. In addition, the “MYC expression change, linker comparison” value in data set [3] (HEK293T, 24 hours) is “both active and increased MYC expression to similar levels”. The “increase in MYC expression” value in data set [3] (HEK293T, transfected at 400, 200, 100, 50 nM, harvested after 24 hours) was “about 4 fold”.

For “PVT1 ASO24-JQ1: PVT1 ASO24 (SEQ ID NO: 30) conjugated to JQ1 with linker 2 (CATTGAAGGATCATGGTCAT; conjugated to JQ1 via linker 2, modification pattern not given here)”, the MYC expression change entry in data set [3] (setting [6]) is recorded as “increased MYC expression level similar to PVT1 ASO1-JQ1”.

As to “PVT1 ASO25-JQ1: PVT1 ASO25 (SEQ ID NO: 31) conjugated to JQ1 with linker 2 (TTATAGACTAGATTGGCCAG; conjugated to JQ1 via linker 2, modification pattern not given here)”, the MYC expression change result in data set [3] (setting [6]) is “increased MYC expression level similar to PVT1 ASO1-JQ1”.

On to “PVT1-ASO1-Linker1-JQ1: PVT1 ASO1 (SEQ ID NO: 7) conjugated to JQ1 with linker 1 (eG*eT*eA*eA*eG*eT*eG*eG*eA*eA*eT*eT*e[5mC]*e[5mC]*eA*eG*eT*eT*eG; JQ1 conjugated via linker 1, further chemistry not fully specified)”, for which the “MYC expression change, linker comparison” value in data set [3] (HEK293T, 24 hours) is “both active and increased MYC expression to similar levels”.

Take “PVT1-Scr1: JQ1 conjugate of partially scrambled PVT1 ASO1 sequence scr1 (SEQ ID NO: 63) (eT*eG*eA*eA*eG*eT*eG*eG*eA*eA*eT*eT*e[5mC]*e[5mC]*eA*eG*eT*eT*eG; JQ1 conjugate, further chemistry not fully specified)”: the MYC expression change entry in data set [3] (HEK293T, 100 nM, 24 hours) is “less impact on the activities”.

Take “PVT1-Scr4: JQ1 conjugate of partially scrambled PVT1 ASO1 sequence scr4 (SEQ ID NO: 66) (eG*eT*eA*eA*eG*eT*eG*eG*eA*eA*eT*eT*e[5mC]*e[5mC]*eA*eT*eT*eG*eG; JQ1 conjugate, further chemistry not fully specified)”: in data set [3] (HEK293T, 100 nM, 24 hours), the MYC expression change entry was “less impact on the activities”.

Take “PVT1-Scr8: JQ1 conjugate of partially scrambled PVT1 ASO1 sequence scr8 (SEQ ID NO: 70) (eG*eT*eA*eA*eG*eT*eG*eG*eA*eA*eT*eT*e[5mC]*e[5mC]*eA*eT*eG*eG*eT; JQ1 conjugate, further chemistry not fully specified)”: the MYC expression change entry in data set [3] (HEK293T, 100 nM, 24 hours) is recorded as “less impact on the activities”.

On to “SCN1A ASO1-JQ1: SCN1A ASO1 (SEQ ID NO: 46), 5′ Azide-N modified LNA mixmer, conjugated to JQ1 with linker 1 (AGTAAGACTGGGGTTGTT; 5' azide, LNA mixmer, JQ1 via linker 1, chemistry not fully specified)”, for which the “increase in SCN1A expression” value in data set [4] is recorded as “about 2 fold”.

Turning to “SYNGAP1 ASO2-JQ1: SYNGAP1 ASO2 (SEQ ID NO: 48) conjugated to JQ1 using Linker 2 (ATCACCTCCTATAGCTCCT; 5' amino modified, conjugated to JQ1 via linker 2, further chemistry not given here)”, the “increase in SYNGAP1 expression” value in data set [5] was “about 2 fold”.
